From ChEMBL document CHEMBL5230136, “A review: Biologically active 3,4-heterocycle-fused coumarins” (Eur J Med Chem, 2021)
≈ marks a conversion by molar mass, not a printed value.

What was measured:
MES-SA = experiment: Cytotoxicity against human MES-SA cells assessed as reduction in cell viability incubated for 72 hrs by MTT assay; type: functional, cell-based
Staphylococcus aureus [1] = experiment: Antibacterial activity against Staphylococcus aureus assessed as zone of inhibition; type: functional
Bacillus subtilis = experiment: Antibacterial activity against Bacillus subtilis assessed as zone of inhibition; type: functional
Bacillus cereus [2] = experiment: Antibacterial activity against Bacillus cereus assessed as zone of inhibition; type: functional
Pseudomonas aeruginosa [3] = experiment: Antibacterial activity against Pseudomonas aeruginosa assessed as zone of inhibition; type: functional
Escherichia coli [4] = experiment: Antibacterial activity against Escherichia coli assessed as zone of inhibition; type: functional
Klebsiella aerogenes = experiment: Antibacterial activity against Enterobacter aerogenes assessed as zone of inhibition; type: functional
[5] = target: Dual specificity tyrosine-phosphorylation-regulated kinase 1A (Homo sapiens, UniProt Q13627); experiment: Inhibition of DYRK1A (unknown origin)
Candida albicans [6] = experiment: […] activity against Candida albicans assessed as zone of inhibition at 20 mg/ml; type: functional; conditions: read-out: IZ
L1210 = experiment: Cytotoxicity against […] cells assessed as reversal of multi drug resistance at 1 uM; type: functional, cell-based; conditions: Mus musculus
HCT-116/VM46 [7] = experiment: Anticancer activity against Multi drug resistant human HCT-116/VM46 cells assessed as inhibition of cell growth; type: functional, cell-based
HCT-116/VM46 [8] = experiment: cells; conditions: Homo sapiens
H69AR = experiment: Cytotoxicity against human NCI-H69AR cells assessed as reduction in cell viability by SRB assay; type: functional, cell-based
HuCC-A1 = experiment: Antiproliferative activity against human HuCC-A1 cells assessed as reduction in cell proliferation; type: functional, cell-based
Candida albicans [9] = experiment: Antifungal activity against Candida albicans assessed as reduction in fungal growth; type: functional
[10] = Antioxidant activity assessed as FRAP radical activity by FRAP assay; type: functional
Colletotrichum camelliae = experiment: Antifungal activity against Colletotrichum camelliae; type: functional, organism-based
Aspergillus niger = experiment: Antifungal activity against Aspergillus niger assessed as zone of inhibition; type: functional
Penicillium italicum = experiment: Antifungal activity against Penicillium italicum assessed as zone of inhibition; type: functional
Fusarium oxysporum [11] = experiment: Antifungal activity against Fusarium oxysporum assessed as zone of inhibition; type: functional
[12] = test system: Staphylococcus epidermidis; experiment: Antibacterial activity against Staphylococcus epidermidis assessed as reduction in bacterial growth; type: functional
Escherichia coli [13] = experiment: Antibacterial activity against Escherichia coli assessed as bacterial growth inhibition; type: functional
[14] = target: T1, D(4) dopamine receptor (Homo sapiens) (UniProt P21917); experiment: Inhibition of human D4 receptor
T1 sequence (whole entry): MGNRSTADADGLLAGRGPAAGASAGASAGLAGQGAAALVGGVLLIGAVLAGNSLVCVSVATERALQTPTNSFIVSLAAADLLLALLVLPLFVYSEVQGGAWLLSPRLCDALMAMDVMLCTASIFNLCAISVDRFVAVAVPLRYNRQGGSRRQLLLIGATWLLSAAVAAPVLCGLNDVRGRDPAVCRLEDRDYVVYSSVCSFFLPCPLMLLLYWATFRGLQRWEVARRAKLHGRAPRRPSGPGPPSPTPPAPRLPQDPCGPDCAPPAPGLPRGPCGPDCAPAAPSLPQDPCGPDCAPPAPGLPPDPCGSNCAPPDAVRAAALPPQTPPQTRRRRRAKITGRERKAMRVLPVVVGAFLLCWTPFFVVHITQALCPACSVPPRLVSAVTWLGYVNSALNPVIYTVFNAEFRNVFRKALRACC

HeLa = experiment: Antiproliferative activity against human HeLa cells assessed as reduction in cell proliferation; type: functional, cell-based
HepG2 = experiment: Anticancer activity against human HepG2 cells by MTT assay; type: functional, cell-based
[15] = Cytotoxicity against human MRC5 cells assessed as reduction in cell viability measured after 72 hrs by MTT assay; type: toxicity, cell-based
[16] = Inhibition of wild type HIV-1 protease; parameters: species or system Human immunodeficiency virus
Staphylococcus aureus [17] = experiment: Antibacterial activity against Staphylococcus aureus assessed as zone of inhibition at 20 mg/ml; type: functional; conditions: read-out: IZ
Bacillus cereus [18] = experiment: Antibacterial activity against Bacillus cereus assessed as zone of inhibition at 20 mg/ml; type: functional; conditions: read-out: IZ
Escherichia coli [19] = experiment: Antibacterial activity against Escherichia coli assessed as zone of inhibition at 20 mg/ml; type: functional; conditions: read-out: IZ
Pseudomonas aeruginosa [20] = experiment: Antibacterial activity against Pseudomonas aeruginosa assessed as zone of inhibition at 20 mg/ml; type: functional; conditions: read-out: IZ
Serratia marcescens = experiment: Antibacterial activity against Serratia marcescens assessed as zone of inhibition at 20 mg/ml; type: functional; conditions: read-out: IZ
Micrococcus luteus = experiment: Antibacterial activity against Micrococcus luteus assessed as zone of inhibition at 20 mg/ml; type: functional; conditions: read-out: IZ
Candida albicans [21] = experiment: Antifungal activity against Candida albicans assessed as zone of inhibition at 20 mg/ml; type: functional; conditions: read-out: IZ
Trichophyton rubrum = experiment: Antifungal activity against Trichophyton rubrum assessed as zone of inhibition at 20 mg/ml; type: functional; conditions: read-out: IZ
Aspergillus flavus = experiment: Antifungal activity against Aspergillus flavus assessed as zone of inhibition at 20 mg/ml; type: functional; conditions: read-out: IZ
Fusarium oxysporum [22] = experiment: Antifungal activity against Fusarium oxysporum assessed as zone of inhibition at 20 mg/ml; type: functional; conditions: read-out: IZ
Scopulariopsis = experiment: Antifungal activity against Scopulariopsis assessed as zone of inhibition at 20 mg/ml; type: functional; conditions: read-out: IZ
Geotrichum candidum = experiment: Antifungal activity against Geotrichum candidum assessed as zone of inhibition at 20 mg/ml; type: functional; conditions: read-out: IZ
Fusarium oxysporum [23] = experiment: Antifungal activity against Fusarium oxysporum assessed as zone of inhibition at 50 uM; type: functional; conditions: read-out: IZ
Botrytis cinerea [24] = experiment: Antifungal activity against Botrytis cinerea; type: functional, organism-based
Botrytis cinerea [25] = experiment: Antifungal activity against Botrytis cinerea assessed as inhibition of fungal growth incubated for 24 hrs by standard broth dilution assay; type: functional, organism-based

With O=[Se](O)O [SODIUM SELENITE] the IC50 (MES-SA) was 29 µM.
In the case of CC1(C)S[C@@H]2[C@H](NC(=O)[C@H](N)c3ccc(O)cc3)C(=O)N2[C@H]1C(=O)O [AMOXICILLIN], the “inhibition zone (IZ)” value (Staphylococcus aureus [1]) is reported as 29 mm, the “inhibition zone (IZ)” value (Bacillus subtilis) is reported as 12 mm and the “inhibition zone (IZ)” value (Bacillus cereus [2]) is reported as 20 mm. For the same compound, the “inhibition zone (IZ)” value (Pseudomonas aeruginosa [3]) was 11 mm, the “inhibition zone (IZ)” value (Escherichia coli [4]) was 36 mm and the “inhibition zone (IZ)” value (Klebsiella aerogenes) was 10 mm.
Compound O=c1oc2ccc(O)cc2c2c1[nH]c1ccc(O)cc12 has an IC50 [5] of 67 nM.
Work on Nc1cc(=O)[nH]c2c3c(=O)oc4ccccc4c3nn12 yielded a zone of inhibition at 20000 µg/mL (Candida albicans [6]) of 10 mm.
Compound COc1ccc(CCn2cc(-c3ccc(OC)c(OC)c3)c3c4cc(OC)c(OC)cc4oc(=O)c32)cc1OC has an IC50 (L1210) of 50 µM, an IC50 (HCT-116/VM46 [7]) of 40 µM and an IC50 (HCT-116/VM46 [8]) of 40 µM.
Work on COc1cc([C@@H]2c3cc4c(cc3[C@@H](O[C@@H]3O[C@@H]5CO[C@@H](C)O[C@H]5[C@H](O)[C@H]3O)[C@H]3COC(=O)[C@H]23)OCO4)cc(OC)c1O [ETOPOSIDE] yielded an IC50 (H69AR) of 45.9 µM and an IC50 (HuCC-A1) of 6.8 µM.
With COc1cccc2cc(-c3ccc4c(=O)oc5c(C)cccc5c4n3)c(=O)oc12 the MIC (Candida albicans [9]) was 1000 µg/mL (≈ 2590 µM).
Work on O=c1c(O)c(-c2ccc(O)c(O)c2)oc2cc(O)cc(O)c12 [QUERCETIN] yielded an IC50 [10] of 53.9 mM.
Work on Cc1coc2c1c(=O)oc1ccccc12 yielded an EC50 (Colletotrichum camelliae) of 8.74 µg/mL (≈ 43.7 µM).
For O=c1[nH]cnc2c1C(c1ccc(Br)cc1)c1c(c3ccccc3oc1=O)O2 (stereo unspecified), the “inhibition zone (IZ)” value (Staphylococcus aureus [1]) was 22 mm, the “inhibition zone (IZ)” value (Bacillus subtilis) was 18 mm and the “inhibition zone (IZ)” value (Bacillus cereus [2]) was 16 mm. For the same compound, the “inhibition zone (IZ)” value (Pseudomonas aeruginosa [3]) was 10 mm, the “inhibition zone (IZ)” value (Escherichia coli [4]) was 13 mm and the “inhibition zone (IZ)” value (Klebsiella aerogenes) was 12 mm. The “inhibition zone (IZ)” value (Aspergillus niger) was 21 mm, the “inhibition zone (IZ)” value (Penicillium italicum) was 12 mm and the “inhibition zone (IZ)” value (Fusarium oxysporum [11]) was 20 mm.
With N=c1c2c(=O)oc3ccccc3c2ccn1-c1ccccn1 the MIC [12] was 50 µg/mL (≈ 173 µM).
Cc1cccc2c1oc(=O)c1cc(NC(=O)c3ccccc3)c(=O)oc12 gave an MIC (Escherichia coli [13]) of 105 µM (≈ 36.5 µg/mL).
With CC(CN1CCC2c3ccccc3OC(=O)C2C1)N(C)C (stereo unspecified) the ID50 [14] was 0.192 mg/kg.
Work on O=C(NO)c1cc2c(=O)oc3ccccc3c2s1 yielded an IC50 (HeLa) of 8.84 µM.
For O=c1oc2ccccc2c2c1C(c1ccc(Br)cc1O)SCCN2 (stereo in doubt; 200), the IC50 (HepG2) was 58 µM.
Work on CC[C@]1(O)C[C@@H]2CN(CCc3c([nH]c4ccccc34)[C@@](C(=O)OC)(c3cc4c(cc3OC)N(C)[C@H]3[C@@](O)(C(=O)OC)[C@H](OC(C)=O)[C@]5(CC)C=CCN6CC[C@]43[C@@H]65)C2)C1 [VINBLASTINE] yielded an IC50 (HCT-116/VM46 [8]) of 0.002 µM.
With COc1cc2c(cc1O)oc(=O)c1c2c(-c2ccc(OC)c(OC)c2)c2c3cc(OC)c(O)cc3ccn21 the IC50 at 72 h [15] was greater than 97 µM.
COc1cc(-c2c3n(c4c(=O)oc5cc(O)c(OC)cc5c24)CCc2c-3cc(OC)c(OC)c2O)ccc1O showed an IC50 (H69AR) of 4.3 µM and an IC50 (HuCC-A1) of 3.4 µM.
In the case of N#CC1=C(N)Oc2c(c(=O)oc3ccccc23)C1c1ccc(Br)cc1 (stereo unspecified), the “inhibition zone (IZ)” value (Staphylococcus aureus [1]) is reported as 28 mm, the “inhibition zone (IZ)” value (Bacillus subtilis) is reported as 11 mm and the “inhibition zone (IZ)” value (Bacillus cereus [2]) is reported as 19 mm. The “inhibition zone (IZ)” value (Pseudomonas aeruginosa [3]) was 10 mm, the “inhibition zone (IZ)” value (Escherichia coli [4]) was 20 mm and the “inhibition zone (IZ)” value (Klebsiella aerogenes) was 10 mm. For the same compound, the “inhibition zone (IZ)” value (Aspergillus niger) was 12 mm, the “inhibition zone (IZ)” value (Penicillium italicum) was 11 mm and the “inhibition zone (IZ)” value (Fusarium oxysporum [11]) was 20 mm.
COc1ccc(-c2c3c4cc(OC)c(O)cc4oc(=O)c3n3ccc4cc(O)c(OC)cc4c23)cc1O gave an IC50 [16] of 8 µM.
For CCOC(=O)c1sc2c(c1N)c(=O)oc1ccccc12, the zone of inhibition at 20000 µg/mL (Staphylococcus aureus [17]) was 9 mm, the zone of inhibition at 20000 µg/mL (Bacillus cereus [18]) was 0 mm and the zone of inhibition at 20000 µg/mL (Escherichia coli [19]) was 0 mm. For the same compound, the zone of inhibition at 20000 µg/mL (Pseudomonas aeruginosa [20]) was 10 mm, the zone of inhibition at 20000 µg/mL (Serratia marcescens) was 8 mm and the zone of inhibition at 20000 µg/mL (Micrococcus luteus) was 8 mm. The zone of inhibition at 20000 µg/mL (Candida albicans [21]) was 13 mm, the zone of inhibition at 20000 µg/mL (Trichophyton rubrum) was 0 mm and the zone of inhibition at 20000 µg/mL (Aspergillus flavus) was 0 mm. It also gave a zone of inhibition at 20000 µg/mL (Fusarium oxysporum [22]) of 0 mm, a zone of inhibition at 20000 µg/mL (Scopulariopsis) of 8 mm and a zone of inhibition at 20000 µg/mL (Geotrichum candidum) of 0 mm. The zone of inhibition at 50 µM (Fusarium oxysporum [23]) was 16 mm.
With Cc1oc2c(c1C)c(=O)oc1cc(OC(C)C)ccc12 the EC50 (Botrytis cinerea [24]) was 1.72 µg/mL (≈ 6.32 µM), the EC50 (Colletotrichum camelliae) was 6.02 µg/mL (≈ 22.1 µM) and the EC50 (Botrytis cinerea [25]) was 1720 nM.
